The target in this experiment is T1, human α7 nAChR stably expressed in a HEK cell line (with human RIC-3) (Homo sapiens, UniProt P36544).
T1 construct: PrecisION hnAChR α7/RIC-3
In words: Automated patch-clamp electrophysiology functional assay (Assay A), IonFlux HT, whole-cell population patch. Type of experiment: cell-based. How it is done: The α7 nAChR positive allosteric modulator (PAM) activity of the present compounds may be tested using assays known in the art. The α7 nAChR PAMs described herein have activities in an automated patch-clamp electrophysiology functional assay as described in the examples. The assay was performed using the IonFlux HT in a whole-cell, population patch configuration. See Golden et al. Assay Drug Dev. Technol. (2011) 9:608-619. The compounds were assessed for their ability to modulate the function of the human α7 nAChR stably expressed in a HEK cell line both in the presence, and in the absence of the natural α7 agonist acetylcholine. By performing a series of such measurements at different concentrations, the effective concentration of the α7 nAChR PAMs (EC50) was determined. See Spencer et al. Assay Drug Dev. Technol. (2012) 10:313-324.
Direct activation of α7 (agonism), and potentiation of 5 acetylcholine-evoked α7 currents was determined as follows:
Automated Patch-Clamp Electrophysiology Functional Assay (Assay A)
Automated patch-clamp electrophysiology was performed using the IonFlux HT (Fluxion Biosciences Inc., San Francisco, Calif.) in the whole-cell, population patch configuration. Test compounds were assessed for their ability to modulate the function of the α7 nicotinic acetylcholine receptor both in the presence, and in the absence of the natural α7 agonist acetylcholine. A HEK cell line stably expressing both human RIC-3 and human α7 (PrecisION hnAChR α7/RIC-3, Eurofins Pharma, St. Charles, Mo.) was cultured in 175 cm^2 triple-layer tissue culture flasks to no more than 90% confluency in DMEM/F-12 growth media supplemented with 10% heat-inactivated fetal bovine serum, 1% non-essential amino acids, 0.625 μg/mL Puromycin, and 400 μg/mL Geneticin. Immediately prior to assay, cells were detached by first aspirating growth media, rinsing with Dulbecco's phosphate buffered saline, and then adding 10 mL of Accutase (Innovative Cell Technologies, San Diego, Calif.) to the flask and then incubating at 37° C. for 5 minutes. Detached cells were then recovered by the addition of 40 mL of CHO-serum-free media supplemented with 25 mM HEPES, and rocked gently in a 50 mL conical tube for 20 minutes prior to patch-clamp assay. After recovery, cells were pelleted by centrifugation at 1,000 RPM for 1 minute in a compact bench top centrifuge; recovery media was aspirated and cells were resuspended in external recording solution (150 mM NaCl, 5 mM KCl, 2 mM CaCl2, 1 mM MgCl2, 10 mM HEPES, 12 mM dextrose) to a density of 5.0×10^6 cells/mL. The cell suspension was added to the cell inlet wells on an IonFlux HT population patch plate which had previously been rinsed and primed with deionized H2O. Test compounds were serially diluted in DMSO and then resuspended to the final test concentration in external recording solution, with, or without […] acetylcholine added to the external recording solution; test compounds were then transferred to the IonFlux HT population patch plate. Internal recording solution (110 mM TrisPO4, 28 mM TrisBase, 0.1 mM CaCl2, 2 mM MgCl2, 11 mM EGTA, 4 mM MgATP) was added to the internal recording solution inlet wells on the IonFlux HT patch plate previously loaded with cells and test compounds, and the plate loaded into the IonFlux HT instrument. A protocol was executed on the IonFlux HT to trap the cells, break into the cells, and establish the whole-cell recording configuration; cells were voltage-clamped at a holding potential of −60 mV for the duration of the experiment, all experiments were conducted at room temperature, and the IonFlux HT injection pressure was 8 psi for solution applications. Upon establishing the whole-cell configuration, external recording solution was perfused into the recording chambers for 120 seconds and then 40 μM acetylcholine was applied for 1 second and immediately washed off with external recording solution for 60 seconds. […]
For orientation: In patch-clamp work, channel activity is measured electrically.

The mark [1] stands for this setting: automated patch-clamp electrophysiology functional assay (Assay A), potency class by EC50, read-out: α7 nAChR Potency.
The mark [2] stands for this setting: electrophysiology EC50, HEK cells expressing human α7/RIC-3, 40 μM acetylcholine, holding potential −60 mV, room temperature, read-out: α7 nAChR EC50.

Like-named read-outs stand apart in the source and are kept apart here.

T1 sequence (P36544 23-502): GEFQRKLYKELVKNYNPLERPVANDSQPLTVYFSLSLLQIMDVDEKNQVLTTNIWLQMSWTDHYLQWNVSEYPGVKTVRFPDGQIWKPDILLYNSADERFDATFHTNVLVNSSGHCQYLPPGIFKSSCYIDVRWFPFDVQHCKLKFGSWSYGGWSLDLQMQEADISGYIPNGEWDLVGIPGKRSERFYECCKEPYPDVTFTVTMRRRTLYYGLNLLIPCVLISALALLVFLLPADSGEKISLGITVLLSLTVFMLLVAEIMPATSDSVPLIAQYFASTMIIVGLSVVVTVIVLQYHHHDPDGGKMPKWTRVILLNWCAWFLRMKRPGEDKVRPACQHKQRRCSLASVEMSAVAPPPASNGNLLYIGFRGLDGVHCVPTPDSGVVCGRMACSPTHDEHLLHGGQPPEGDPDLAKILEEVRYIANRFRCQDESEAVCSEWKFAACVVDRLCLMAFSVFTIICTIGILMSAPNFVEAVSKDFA

With `CC1(C)[C@@H](c2ccc(S(N)(=O)=O)cc2)[C@@H]1c1cc(-c2ccccc2)no1` [Example L4], the EC50 runs as follows: under setting [1], 500 to 5000 nM; under setting [2], 640 nM. In the case of `CC1(C)[C@@H](c2ccc(S(N)(=O)=O)cc2)[C@@H]1c1noc(-c2ccc(OCCF)nc2)n1` [Example I14], the EC50 under setting [1] was 500 to 5000 nM. Same read-out and setting: the figure for `CCc1coc([C@@H]2C[C@H]2c2ccc(S(N)(=O)=O)cc2)n1` [Example K6] is 500 to 5000 nM; for `CC1(C)[C@H](c2ccc(S(N)(=O)=O)cc2)[C@H]1c1noc(C2(C(F)(F)F)CC2)n1` [Example L19] it is 500 to 5000 nM. Regarding `CC1(C)[C@H](c2ccc(S(N)(=O)=O)cc2)[C@H]1c1noc(-c2ccccc2)n1` [Example L17], under setting [1], the EC50 is 100 to 500 nM. Consider `CC1(C)[C@@H](c2ccc(S(N)(=O)=O)cc2)[C@@H]1c1noc(-c2ccncc2C(F)(F)F)n1` [Example I19], for which the EC50 under setting [1] fell in the range of 100 to 500 nM. As for `CC1(C)[C@@H](c2ccc(S(N)(=O)=O)cc2)[C@@H]1c1nc(C2CCCCC2)no1` [Example D3], the EC50 is 100 to 500 nM under setting [1] and 150 nM under setting [2]. In the case of `Cc1ncoc1-c1noc([C@@H]2C[C@H]2c2ccc(S(N)(=O)=O)cc2)n1` [Example D31], the EC50 under setting [1] fell in the range of 500 to 5000 nM. For `NS(=O)(=O)c1ccc([C@@H]2C[C@H]2c2nc(-c3ccccc3C(F)(F)F)no2)cc1` [Example C6], under setting [1], the EC50 lay in the range of 500 to 5000 nM. The same measure, in the same setting: next, `CC(C)c1nnc([C@H]2[C@H](c3ccc(S(N)(=O)=O)cc3)C2(C)C)o1` [Example G9]: 500 to 5000 nM; `Cc1cccc(-c2noc([C@@H]3C[C@H]3c3ccc(S(N)(=O)=O)cc3)n2)c1` [Example C18]: 100 to 500 nM. Consider `CC1(C)[C@@H](c2ccc(S(N)(=O)=O)cc2)[C@@H]1c1noc(C2CCCC2)n1` [Example I26], for which the EC50 by setting is: under setting [1], no more than 100 nM; under setting [2], 64 nM. `CC1(C)[C@@H](c2ccc(S(N)(=O)=O)cc2)[C@@H]1c1nc(-c2cnccc2C(F)(F)F)no1` [Example D2]: the EC50 under setting [1] was 500 to 5000 nM. Turning to `NS(=O)(=O)c1ccc([C@@H]2C[C@H]2c2nc(-c3cc(F)ccc3C(F)(F)F)no2)cc1` [Example C8], the EC50 under setting [1] lay in the range of 100 to 500 nM and the EC50 under setting [2] came out at 500 nM. On to `CC1(C)[C@H](c2ccc(S(N)(=O)=O)cc2)[C@H]1c1noc(-c2cccc(F)c2)n1` [Example L18], for which the EC50 under setting [1] was in the range of 100 to 500 nM and the EC50 under setting [2] worked out at 220 nM. As to `CC1(C)[C@@H](c2ccc(S(N)(=O)=O)cc2)[C@@H]1c1noc(Cn2c(=O)oc3ccc(Cl)cc32)n1` [Example I5], the EC50 under setting [1] lay in the range of 500 to 5000 nM. For `CC1(C)[C@@H](c2ccc(S(N)(=O)=O)cc2)[C@@H]1c1noc(-c2cccc(C3CC3)c2)n1` [Example H9], the EC50 under setting [1] was 500 to 5000 nM and the EC50 under setting [2] was determined as 1400 nM.

For the compound `CC1(C)[C@@H](c2ccc(S(N)(=O)=O)cc2)[C@@H]1c1nc(-c2ccc(F)cc2C(F)(F)F)no1` [Example C2], under setting [1], the EC50 was 500 to 5000 nM. For the compound `Cc1ccc(-c2noc([C@@H]3C[C@H]3c3ccc(S(N)(=O)=O)cc3)n2)cc1` [Example C19], the EC50 is, setting by setting: under setting [1], 500 to 5000 nM; under setting [2], 510 nM.

Regarding `CC1(C)[C@@H](c2ccc(S(N)(=O)=O)cc2)[C@@H]1c1noc(-c2cnccc2C(F)(F)F)n1` [Example I20], the EC50 under setting [1] lay in the range of 100 to 500 nM.

For the compound `NS(=O)(=O)c1ccc([C@@H]2C[C@H]2c2nc(-c3ccccc3)cs2)cc1` [Example K9], the EC50 is 500 to 5000 nM under setting [1] and 670 nM under setting [2]. In the case of `CC1(C)[C@H](c2ccc(S(N)(=O)=O)cc2)[C@H]1c1nc(-c2ccc(F)cc2F)co1` [Example J2], the EC50 runs as follows: under setting [1], 500 to 5000 nM; under setting [2], 730 nM.

With `CC1(C)[C@H](c2ccc(S(N)(=O)=O)cc2)[C@H]1c1cnc(-c2ccccc2)o1` [Example 10, 4-[(1R,3R)-2,2-Dimethyl-3-(2-phenyl-1,3-oxazol-5-yl)cyclopropyl]benzenesulfonamide], the EC50 under setting [1] lay in the range of 500 to 5000 nM and the EC50 under setting [2] turned out to be 1200 nM.

The record behind these values is US9840481B2, “Allosteric modulators of nicotinic acetylcholine receptors” (MERCK SHARP & DOHME CORP., priority 2016, dated 2017).
